Experimental data taken from publication PMC3280264 (PLoS ONE, 2012).
Marks after values point to notes of the source that are not given here.

How the values were obtained:
[1] = molecular target: T1, glucose transporter 1 (GLUT1) (Rattus norvegicus, UniProt P11167); experiment: 3H-2-deoxy-glucose uptake in L6 myoblast cells; assay type: cell-based
T1 construct: endogenous in cells; host or cells: L6 rat skeletal muscle myoblasts
T1 sequence (P11167 1-492): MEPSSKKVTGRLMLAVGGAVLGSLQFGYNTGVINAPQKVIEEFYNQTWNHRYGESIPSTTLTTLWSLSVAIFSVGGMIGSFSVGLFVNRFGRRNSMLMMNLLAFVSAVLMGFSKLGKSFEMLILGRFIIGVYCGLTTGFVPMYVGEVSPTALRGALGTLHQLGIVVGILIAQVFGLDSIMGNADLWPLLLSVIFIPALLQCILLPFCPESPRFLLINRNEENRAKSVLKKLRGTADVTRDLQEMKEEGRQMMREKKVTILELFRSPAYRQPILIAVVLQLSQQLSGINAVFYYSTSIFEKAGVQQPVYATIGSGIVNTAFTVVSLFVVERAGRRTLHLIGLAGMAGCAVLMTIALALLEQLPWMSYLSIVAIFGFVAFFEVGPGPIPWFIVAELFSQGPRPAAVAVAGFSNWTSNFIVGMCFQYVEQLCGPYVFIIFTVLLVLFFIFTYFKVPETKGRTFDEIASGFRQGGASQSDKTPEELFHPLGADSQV
Description: Cells were maintained in Dulbecco's modified Eagle's medium containing 5.6 mM glucose supplemented with 10% fetal bovine serum, were seeded in 24-well plates at a density of 3.0×10^5 cells/well and cultured for 24 hours in an atmosphere of 5% CO2 at 37°C. […] The transport reaction was initiated by adding 50 µl of 4.5 mM 2-DG (a substrate for GLUTs)/^3H-2-DG (0.625 µCi) followed by incubation for 15 minutes at room temperature. The 2-DG uptake was halted by aspiration of the incubation mixture. Cells were immediately washed 3 times with ice-cold PBS. Samples were extracted with 0.3 N NaOH, and radioactivity was determined by liquid scintillation (Packard, Boston, Massachusetts, USA).

[2] = test system: DIO mice; experiment: 4-week treatment of DIO mice (body weight, UGE, calorimetry); assay type: in vivo; settings: DIO mouse, 30 mg/kg, 4 weeks
Source text: (§1) Four rodent models were used in these experiments: (1) male C57BL/6J mice fed with a high-fat diet (D-12492 with 60 kcal% fat, Research Diets, Inc, New Jersey, USA) (diet-induced obese, insulin resistantmice [DIO]); (2) male C57BL/ksj-db/db hyperglycemic mice; (3) male Zucker fatty (ZF) obese, insulin resistant rats; and (4) male ZDF obese, hyperglycemic rats. All animals were housed according to standard procedures following a protocol approved by the IACUC in Drug Discovery at Johnson & Johnson Pharmaceutical Research & Development, LLC.
Body weight, food intake, and BG levels were monitored weekly. UGE and indirect calorimetry were conducted in the fourth week of treatment during the compound treatment. […] Body weight, food intake, and BG were measured weekly during the 19-day treatment period. UGE, body fat, and indirect calorimetric studies were conducted at the end of this study.

[3] = test system: ZDF rats; experiment: Graded glucose infusion, renal threshold for glucose excretion in ZDF rats; assay type: in vivo, rat; settings: 1 mg/kg
Source text: as §1
Two separate graded glucose infusion (GGI) studies were performed to characterize renal glucose handling in both untreated and treated ZDF rats. […] The RTG was determined as described below.
The relationship between UGE and BG is commonly described as a threshold relationship in which there is little UGE when BG<RTG and UGE increases with filtered glucose load when BG>RTG, where the filtered glucose load is equal to the BG concentration multiplied by the glomerular filtration rate (GFR). […] (1) Values of RTG were determined using nonlinear regression (nlinfit in Matlab version 7.10) with Equation 1 and the measured BG and UGE values.

Q: With `Cc1ccc([C@@H]2O[C@H](CO)[C@@H](O)[C@H](O)[C@H]2O)cc1Cc1ccc(-c2ccc(F)cc2)s1` [canagliflozin, Canagliflozin] as the compound, how does the inhibition at 10 µM ([1]; 10 µM, L6 myoblasts, read-out: inhibition of facilitative GLUT-mediated 3H-2-DG uptake) read?
A: < 50%

Q: What about the IC50 ([1]; 3H-2-DG uptake, rat L6 myoblast cells) of the same compound?
A: > 10 µM

Q: And the RER ([2]; vehicle 0.79±0.01)?
A: 0.77±0.01 ^b

Q: What about the UGE ([2]; vehicle 2.4±0.6) of the same compound?
A: 26.1±5.2 ^b mg/4 h

Q: What about the Body weight ([2]; vehicle 53.2±0.6) of the same compound?
A: 49.6±1.0 ^b g

Q: What about the “Fed BG” value ([2]; vehicle 199±16) of the same compound?
A: 105±13 ^b mg/dl

Q: And the “Oxygen consumption (VO2)” value ([2]; vehicle 2364±29)?
A: 40.32 ± 1.82 mL/min/kg

Q: What about the “BG at which negligible UGE occurred” value ([3]; insulin + GGI study) of the same compound?
A: < 90 mg/dL

Q: And the “renal threshold for glucose excretion (RTG)” value ([3]; untreated 415±12 mg/dl)?
A: 94 ± 10 mg/dL
